According to patent US20250163484A1, “Methods for Incorporating Azido Groups in Bacterial Capsular Polysaccharides” (PFIZER INC., priority 2022, published 2025):
“And” between values parts separate entries of the source, which are not always exact repeats. Equal values may be shown once. Read-outs that look alike come from different tables or passages of the source.

How the values were obtained:
[1] = system: S. pneumoniae T14 capsule polysaccharide; format: cell-based, Streptococcus pneumoniae serotype 14
Method: FIGS. 1A-1D. Screen for azido sugar incorporation into S. pneumoniae T14 capsule polysaccharide. […] Bacteria were grown until the ΔOD600≥0 for >30 minutes, then lysed with 0.1% NLS for 30 minutes. Growth was measured offline using a spectrophotometer blanked with PBS at 600 nm. (FIG. 1A) azido incorporation into polysaccharide was then quantified via fluorescent labeling (FL) with normalization to refractive index (RI). MaxOD and End Of Fermentation time (EOF) are provided in (FIG. 1B) and (FIG. 1C), respectively. Polysaccharide was extracted using EtOH and CaCl2 and analyzed via SEC-RI for (FIG. 1D) polysaccharide titer. n=1-4, error bars=+/−StDev.
A SEC fluorescence and Refractive index assay (SEC-FL/RI) was used for azide measurement to confirm the incorporation of azide modification.
Click-It Cell Reaction Buffer kit and Alexa Fluor 488 Alkyne were purchased from Invitrogen.
The initial procedure when running the SEC-FL/RI was to prepare the sample to a target concentration of 0.01 mg/m by mixing a pre-diluted polysaccharide to the final target concentration with the Click Reaction mixture. The reaction mixture consisted of 2.67 mM CuSO4, 2.67 mg/mL cell additive reagent, and 20 uM Alexa Fluor Alkyne. This was mixed with the sample at a 3:1 ratio of reaction mixture to sample and incubated in the absence of light. Reactions were transferred to HPLC vials and ran on the SEC-FL/RI HPLC setup. The RI detector (RID) allowed for detection of the polysaccharide while the Fluorescence Detector (FLD) was used to determine the level of fluor incorporated into the polysaccharide sample. The ratio of the two peak areas gave a measurement for the amount of azide incorporated to the polysaccharide.
Later, in addition to the incubation of the sample for thirty minutes, a buffer exchange step was added that washed out the unreacted fluor as well as the reaction matrix reagents in order to improve the baselines of the FLD and RID during the HPLC run. This added greater resolution of the peak associated with the azide functionalized polysaccharide. The assay was useful for relative quantitation of azide incorporation into the polysaccharide but could not quantify an exact numerical concentration. To improve this aspect work was undertaken to use a polysaccharide with known levels of azido functionalization to make a standard curve that varied the % Azido while keeping the polysaccharide mass the same. This was done by mixing the known azido modified poly (polysaccharide) with specific amounts of native (unmodified) polysaccharide. A strong linear fit for the generated standard curve was seen.
The values for percent azide were able to be converted to a μM azide per mM polysaccharide by converting from % azide using the constant polysaccharide concentration.

S. pneumoniae T14 = experiment: Growth of S. pneumoniae T14 in fermentation with azido sugar (OD600); format: cell-based, Streptococcus pneumoniae serotype 14; conditions: for MaxOD600 nm: production media + 2AzGlc (10 mM)
[2] = azido feed DOE: Gal 30 g/L, initial 2AzGlc 0 mM, 2AzGlc feed stock 4 mM, pH 7.33, 300 rpm
[3] = azido feed DOE: Gal 30 g/L, initial 2AzGlc 0 mM, 2AzGlc feed stock 6.5 mM, pH 7.33, 300 rpm
[4] = azido feed DOE: Gal 30 g/L, initial 2AzGlc 0.1 mM, 2AzGlc feed stock 4 mM, pH 7.33, 300 rpm
[5] = azido feed DOE: Gal 30 g/L, initial 2AzGlc 0.1 mM, 2AzGlc feed stock 6.5 mM, pH 7.33, 300 rpm
[6] = azido feed DOE: Gal 40 g/L, initial 2AzGlc 0 mM, 2AzGlc feed stock 4 mM, pH 7.33, 300 rpm
[7] = azido feed DOE: Gal 40 g/L, initial 2AzGlc 0 mM, 2AzGlc feed stock 6.5 mM, pH 7.33, 300 rpm
[8] = azido feed DOE: Gal 40 g/L, initial 2AzGlc 0.1 mM, 2AzGlc feed stock 4 mM, pH 7.33, 300 rpm
[9] = azido feed DOE: Gal 40 g/L, initial 2AzGlc 0.1 mM, 2AzGlc feed stock 6.5 mM, pH 7.33, 300 rpm
[10] = initial galactose 40 g/L, initial 2AzGlc 0.1 mM, 4.0 mM 2AzGlc feed stock
[11] = production medium + Galactose (30 g/L) + 2AzGlc (0.25 mM), pH 6.33, agitation 100 rpm
[12] = production medium + Galactose (30 g/L) + 2AzGlc (0.25 mM), pH 6.33, agitation 200 rpm
[13] = production medium + Galactose (30 g/L) + 2AzGlc (0.25 mM), pH 6.33, agitation 300 rpm
[14] = production medium + Galactose (30 g/L) + 2AzGlc (0.25 mM), pH 6.66, agitation 100 rpm
[15] = production medium + Galactose (30 g/L) + 2AzGlc (0.25 mM), pH 6.66, agitation 300 rpm
[16] = production medium + Galactose (30 g/L) + 2AzGlc (0.25 mM), pH 7, agitation 200 rpm
[17] = production medium + Galactose (30 g/L) + 2AzGlc (0.25 mM), pH 7.33, agitation 100 rpm
[18] = production medium + Galactose (30 g/L) + 2AzGlc (0.25 mM), pH 7.33, agitation 300 rpm

For `[N-]=[N+]=N[C@@H](C=O)[C@@H](O)[C@H](O)[C@H](O)CO` [2AzGlc, 2-Azido-2-deoxy-D-glucose], the “increase between lowest and higher FL/RI achieved” value ([1]; 2AzGlc titration 1-60 mM, production media + Glucose (dextrose, 30 g/L)) was 10 fold, the FL/RI [1, 2] was 101.45 and 103.61 and the FL/RI [1, 3] was 113.82 and 121.9. The FL/RI [1, 4] was 116.16 and 116.31, the FL/RI [1, 5] was 84.53 and 83.69 and the FL/RI [1, 6] was 97.04 and 114.22. For the same compound, the FL/RI [1, 7] was 122.7 and 110.09, the FL/RI [1, 8] was 125.02 and 122.41 and the FL/RI [1, 9] was 79.3 and 63.19. For the same compound, the FL/RI ([1]; fed-batch, initial galactose 5.0 g/L, 0.25 mM 2AzGlc, galactose feed rate FR #1) was 45, the FL/RI ([1]; fed-batch, initial galactose 5.0 g/L, 0.25 mM 2AzGlc, galactose feed rate FR #2) was 18 and the “average FL/RI” value [1, 10] was 123.7. The FL/RI ([1]; production media + 2AzGlc (10 mM), pH 6.33, agitation 100 rpm) was 91.9 and 100.7, the FL/RI ([1]; production media + 2AzGlc (10 mM), pH 6.33, agitation 300 rpm) was 98.3 and 97.5 and the FL/RI ([1]; production media + 2AzGlc (10 mM), pH 6.66, agitation 200 rpm) was 114.5 and 135.0. The FL/RI ([1]; production media + 2AzGlc (10 mM), pH 7, agitation 100 rpm) was 117.8 and 118.8, the FL/RI ([1]; production media + 2AzGlc (10 mM), pH 7, agitation 300 rpm) was 115.7 and 107.5 and the FL/RI ([1]; production media + 2AzGlc (10 mM), pH 7.33, agitation 100 rpm) was 137.4 and 158.3. For the same compound, the FL/RI ([1]; production media + 2AzGlc (10 mM), pH 7.33, agitation 200 rpm) was 140.8 and 125.0, the FL/RI ([1]; production media + 2AzGlc (10 mM), pH 7.33, agitation 300 rpm) was 113.9 and 137.3 and the FL/RI ([1]; production media + Glucose (dextrose, 30 g/L), media pH 7, 2AzGlc 1 mM) was 15. It also gave an FL/RI ([1]; production media + Glucose (dextrose, 30 g/L), media pH 7, 2AzGlc 5 mM) of 61, an FL/RI ([1]; production media + Glucose (dextrose, 30 g/L), media pH 7, 2AzGlc 10 mM) of 118 and an FL/RI ([1]; production media + Glucose (dextrose, 30 g/L), media pH 7, 2AzGlc 20 mM) of 146. The FL/RI ([1]; production media + Glucose (dextrose, 30 g/L), media pH 7.33, 2AzGlc 20 mM) was 148, the FL/RI ([1]; production media + Glucose (dextrose, 30 g/L), media pH 7.33, 2AzGlc 40 mM) was 157 and the FL/RI ([1]; production media + Glucose (dextrose, 30 g/L), media pH 7.33, 2AzGlc 60 mM) was 151. The FL/RI [1, 11] was 51.73 and 50.26, the FL/RI [1, 12] was 48.41 and the FL/RI [1, 13] was 45.24 and 44.39. For the same compound, the FL/RI [1, 14] was 78.29, the FL/RI [1, 15] was 77.94 and the FL/RI [1, 16] was 97.25. The FL/RI [1, 17] was 101.26 and 88.76, the FL/RI [1, 18] was 110 and 109.76 and 110.12 and the FL/RI ([1]; screen, azido sugar 1 mM, production medium + Glucose (dextrose, 30 g/L)) was “detectable”. For the same compound, the “rate of galactose consumption, of the batch model” value (S. pneumoniae T14; 2AzGlc addition, production medium + Galactose (30 g/L)) was ~70%, the “concentration at which negative effect on growth started” value (S. pneumoniae T14; 2AzGlc titration, production media + Glucose (dextrose, 30 g/L)) was 20 mM and the “growth with increasing 2AzGlc concentrations” value (S. pneumoniae T14; 2AzGlc titration, production medium + Galactose (30 g/L)) was “negatively impacted”. The MaxOD (S. pneumoniae T14; [2]) was 9.78 and 9.56, the MaxOD (S. pneumoniae T14; [3]) was 8.74 and 8.32 and the MaxOD (S. pneumoniae T14; [4]) was 8.96 and 8.13. The MaxOD (S. pneumoniae T14; [5]) was 5.76 and 5.65, the MaxOD (S. pneumoniae T14; [6]) was 9.78 and 7.39 and the MaxOD (S. pneumoniae T14; [7]) was 8.44 and 6.64. The MaxOD (S. pneumoniae T14; [8]) was 8.53 and 8.4, the MaxOD (S. pneumoniae T14; [9]) was 4.53 and 3.71 and the growth (S. pneumoniae T14; azido sugar 20 mM without DMSO, production medium + Galactose (30 g/L)) was “strongly inhibited”. The “OD600 nm at which growth stopped” value (S. pneumoniae T14; fed-batch, initial galactose 5.0 g/L, 0.25 mM 2AzGlc, regardless of feed rate) was 3.0, the “maximum OD600 nm (average)” value (S. pneumoniae T14; [10]) was 8.5 and the MaxOD600 nm (S. pneumoniae T14; pH 6.66, agitation 200 rpm) was 11.7. The MaxOD600 nm (S. pneumoniae T14; pH 7, agitation 300 rpm) was 11.3 and 12.9, the MaxOD600 nm (S. pneumoniae T14; pH 7.33, agitation 300 rpm) was 10.5 and 10.4 and the MaxOD (S. pneumoniae T14; [11]) was 6.98 and 6.76. The MaxOD (S. pneumoniae T14; [12]) was 6.81, the MaxOD (S. pneumoniae T14; [13]) was 6.05 and 5.89 and the MaxOD (S. pneumoniae T14; [14]) was 8.96. The MaxOD (S. pneumoniae T14; [15]) was 9.1, the MaxOD (S. pneumoniae T14; [16]) was 9.38 and the MaxOD (S. pneumoniae T14; [17]) was 8.43 and 8.23. The MaxOD (S. pneumoniae T14; [18]) was 8.54 and 8.26 and the “maximum OD” value (S. pneumoniae T14; screen, azido sugar 1 mM, only in production medium + Galactose) was “reduced”.
